Legend:
[1] = system: human T24 bladder carcinoma; experiment: tumour-inhibiting activity in nude mice with transplanted human T24 bladder carcinoma; type: in vivo, female Balb/c nude mice; settings: perorally or intraperitoneally once daily for 15 days
Protocol: The tumour-inhibiting activity is determined using female Balb/c nude mice in which human T24 bladder carcinoma has been transplanted. On day 0, a c. 25 mg piece of solid tumour is transplanted subcutaneously under peroral "forene" narcosis on the left flank and the small incision wound is closed with a suture clip. On day 6 after the tumour transplantation, the mice are randomised in groups of 6 animals and treatment is commenced. The treatment is carded out for 15 days by administering a compound of formula I, e.g. N-[3-(1,1,2,2-Tetrafluoroethoxy)phenyl]-4-(4-pyridyl)-2-pyrimidine-amine, in dimethyl sulfoxide/Tween 80/sodium chloride solution in the different doses perorally or intraperitoneally once daily. The tumours are measured twice weekly with a sliding caliper and the tumour volume determined.

[2] = system: p34^cdc2 /cyclin B^cdc13 kinase; experiment: p34cdc2/cyclin Bcdc13 kinase assay with histone H1 as substrate; type: biochemical, starfish
Protocol: Starfish oocytes are induced to enter M phase with 10 μM 1-methyladenine, frozen in liquid nitrogen and stored at -80° C. When required the oocytes are homogenized and centrifuged as described by D. Arion et al., Cell 55, 371-378 (1988) and V. Rialet und L. Meijer, Anticancer Res. 11, 1581-1590 (1991). For purification of p34^cdc2 /cyclin B^cdc13 kinase, the supernatant of oocytes is added to p9^CKShs -sepharose beads prepared from recombinant human p9^CKShsas described by L. Azzi et al., Eur. J. Biochem. 203, 353-360 (1992). After 30 minutes at 4° C. under constant rotation, the beads are extensively washed and active p34^cdc2 /cyclin B^cdc13 kinase is eluted with free p9^CKShs (3 mg/ml). The eluted kinase is assayed using histone H1 as a substrate as described by L. Meijer et al., EMBO J. 8, 2275-2282 (1989) und EMBO J. 10, 1545-1554 (1991). The reaction mixture contains 10 μl p34^cdc2 /cyclin B^cdc13 kinase, 5 μl histone H1, type III-S (5 mg/ml) and 10 μl buffer C. The reaction is started by addition of 5 μl [γ-^32 P]ATP (75 μM, 8800 cpm/pmole) and incubated for 10 minutes at 30° C. The assay is terminated by transferring 25 μl on pieces of Whatman P81 phosphocellulose paper. After 20 seconds the papers are washed 6 times with each 10 ml of 1% phosphoric acid for 5 minutes, dried and counted in a scintillation counter.

[3] = molecular target: EGF-receptor-specific protein tyrosine kinase (EGF-R-PTK) (Homo sapiens, UniProt P00533); experiment: inhibition of the EGF-receptor-specific protein tyrosine kinase (EGF-R-PTK); type: biochemical
Chain of EGF-receptor-specific protein tyrosine kinase (EGF-R-PTK) (P00533 669-1210 limits assumed): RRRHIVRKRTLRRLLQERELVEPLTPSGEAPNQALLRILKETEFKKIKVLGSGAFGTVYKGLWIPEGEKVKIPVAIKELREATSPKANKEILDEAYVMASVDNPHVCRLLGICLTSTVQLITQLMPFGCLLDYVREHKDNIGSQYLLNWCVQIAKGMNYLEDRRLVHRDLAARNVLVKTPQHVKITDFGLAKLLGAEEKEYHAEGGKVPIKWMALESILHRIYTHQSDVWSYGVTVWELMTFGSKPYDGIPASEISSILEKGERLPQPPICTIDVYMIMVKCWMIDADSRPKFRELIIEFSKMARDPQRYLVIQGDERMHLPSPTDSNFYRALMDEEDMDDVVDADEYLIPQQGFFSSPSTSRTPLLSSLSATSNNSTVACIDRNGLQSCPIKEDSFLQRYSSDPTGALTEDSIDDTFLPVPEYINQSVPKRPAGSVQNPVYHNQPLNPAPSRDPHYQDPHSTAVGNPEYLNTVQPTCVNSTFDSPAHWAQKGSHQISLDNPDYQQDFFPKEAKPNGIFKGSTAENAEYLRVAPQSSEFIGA
Description: J. Biochem. 207, 265-275 (1992).

SMILES	average tumour volume compared with the untreated controls [1]	inhibition of p34cdc2/cyclin Bcdc13 kinase [2]	IC50 ([2]; histone H1 substrate)	inhibition of the tyrosine kinase activity of the receptor for EGF [3]
FC(F)C(F)(F)Oc1cccc(Nc2nccc(-c3ccncc3)n2)c1 [Example 32, N-[3-(1,1,2,2-tetrafluoroethoxy)phenyl]-4-(4-pyridyl)-2-pyrimidine-amine]	marked reduction in the average tumour volume	inhibit	80 nM	
FC(F)C(F)(F)Oc1cccc(Nc2nccc(-c3c[nH]c4ccccc34)n2)c1 [Example 33, N-[3-(1,1,2,2-tetrafluoroethoxy)phenyl]-4-(3-indolyl)-2-pyrimidine-amine]				inhibit the tyrosine kinase activity

— patent US5521184A, “Pyrimidine derivatives and processes for the preparation thereof” (Ciba-Geigy Corporation, priority 1992, dated 1996)
